According to the supplement of paper PMC10307832:

How the values were obtained:
Test in all cases: relative viability (nuclei count vs DMSO), 5 days (fraction); higher = more cells survive
[1] = compound: Cn1cc(-c2cnn3c(N)c(Br)c([C@@H]4CCCNC4)nc23)cn1 + C[C@]1(O)C[C@@H](c2nc(-c3ccc4ccc(-c5ccccc5)nc4c3)c3c(N)nccn32)C1 [Linsitinib] (partner 1 µM)
In short: (§1)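 Values are medians from duplicate plates. Each reflects relative viability, defined as the nuclei count of treated wells over that of vehicle wells. Lung cancer cell lines in 1536-well plates were pin-tool dosed one day after seeding with one drug alone or with a fixed anchor-drug dose plus five library-drug doses (not always all listed) in √10 steps, then fixed, stained and imaged at 4× after 5 days.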

[2] = compound: Cn1cc(-c2cnn3c(N)c(Br)c([C@@H]4CCCNC4)nc23)cn1 + O=C(CCCCCCC(=O)Nc1ccccc1)NO [Vorinostat] (partner 1 µM)
In short: as §1

[3] = compound: Cn1cc(-c2cnn3c(N)c(Br)c([C@@H]4CCCNC4)nc23)cn1 + O=C(c1cc(Cc2n[nH]c(=O)c3ccccc23)ccc1F)N1CCN(C(=O)C2CC2)CC1 [Olaparib] (partner 8 µM)
In short: as §1

[4] = compound: Cn1cc(-c2cnn3c(N)c(Br)c([C@@H]4CCCNC4)nc23)cn1 + Nc1nc2[nH]cc(CCc3ccc(C(=O)N[C@@H](CCC(=O)O)C(=O)O)cc3)c2c(=O)[nH]1 [Pemetrexed] (partner 0.2 µM)
In short: as §1

| Cell Line | relative viability ([1]; first compound 0.05 µM) | relative viability ([1]; first compound 0.1581 µM) | relative viability ([1]; first compound 0.5 µM) | relative viability ([1]; first compound 1.581 µM) | relative viability ([1]; first compound 5 µM) | relative viability ([2]; first compound 0.05 µM) | relative viability ([2]; first compound 0.1581 µM) | relative viability ([2]; first compound 0.5 µM) | relative viability ([2]; first compound 1.581 µM) | relative viability ([2]; first compound 5 µM) | relative viability ([3]; first compound 0.05 µM) | relative viability ([3]; first compound 0.1581 µM) | relative viability ([3]; first compound 0.5 µM) | relative viability ([3]; first compound 1.581 µM) | relative viability ([3]; first compound 5 µM) | relative viability ([4]; first compound 0.05 µM) | relative viability ([4]; first compound 0.1581 µM) | relative viability ([4]; first compound 0.5 µM) | relative viability ([4]; first compound 1.581 µM) | relative viability ([4]; first compound 5 µM) |
| --- | --- | --- | --- | --- | --- | --- | --- | --- | --- | --- | --- | --- | --- | --- | --- | --- | --- | --- | --- | --- |
| NCI-H2085 | 0.85 | 0.885 | 0.859 | 0.824 | 0.779 | 0.801 | 0.761 | 0.843 | 0.725 | 0.61 | 0.813 | 0.849 | 0.776 | 0.762 | 0.752 | 0.864 | 0.925 | 0.921 | 0.789 | 0.7 |
| NCI-H2087 | 1.1 | 1.07 | 0.998 | 1.04 | 0.857 | 0.865 | 0.891 | 0.341 | 0.424 | 0.653 | 0.766 | 0.735 | 0.623 | 0.624 | 0.676 | 0.671 | 0.637 | 0.615 | 0.582 | 0.647 |
| NCI-H2126 | 0.842 | 0.723 | 0.714 | 0.666 | 0.686 | 0.694 | 0.788 | 0.762 | 0.683 | 0.68 | 0.965 | 0.923 | 0.887 | 0.792 | 0.923 | 0.662 | 0.756 | 0.753 | 0.566 | 0.454 |
| NCI-H2228 | 0.975 | 0.895 | 0.628 | 0.586 | 0.459 | 0.636 | 0.592 | 0.507 | 0.345 | 0.155 | 0.546 | 0.688 | 0.675 | 0.508 | 0.359 | 0.315 | 0.33 | 0.311 | 0.22 | 0.155 |
| NCI-H2347 | 0.992 | 1.01 | 0.986 | 0.917 | 0.85 | 0.525 | 0.585 | 0.511 | 0.482 | 0.4 | 0.626 | 0.695 | 0.53 | 0.629 | 0.611 | 0.408 | 0.394 | 0.418 | 0.502 | 0.338 |
| NCI-H2405 | 0.922 | 0.875 | 1.02 | 0.842 | 0.785 | 0.962 | 1.01 | 0.951 | 0.847 | 0.668 | 0.875 | 0.954 | 0.901 | 0.857 | 0.659 | 0.968 | 1.05 | 1.05 | 0.991 | 0.709 |
| NCI-H3122 | 1.02 | 1.06 | 0.964 | 1.08 | 1.09 | 0.999 | 1.12 | 0.987 | 0.88 | 1.11 | 0.647 | 0.674 | 0.598 | 0.635 | 0.563 | 0.196 | 0.169 | 0.158 | 0.147 | 0.164 |
| PC-3 [JPC-3] | 0.966 | 0.989 | 0.975 | 0.975 | 1.03 | 0.656 | 0.747 | – | 0.834 | 0.566 | 1.14 | 1.02 | – | 1.09 | 1.15 | 0.698 | 1.03 | – | 1.09 | 0.82 |
| PC-14 | 0.854 | 1.11 | 1.05 | 0.877 | 0.578 | 0.752 | 0.601 | 0.527 | 0.223 | 0.117 | 0.211 | 0.213 | 0.222 | 0.19 | 0.125 | 0.13 | 0.1 | 0.102 | 0.089 | 0.0648 |
| RERF-LC-KJ | 0.932 | 0.936 | 0.914 | 0.809 | 0.749 | 0.636 | 0.808 | 0.802 | 0.599 | 0.6 | 1.05 | 0.996 | 0.869 | 0.762 | 0.662 | 0.459 | 0.476 | 0.477 | 0.422 | 0.478 |
| SK-LU-1 | 1.13 | – | 0.465 | 0.318 | 0.255 | 0.92 | 0.631 | 0.407 | 0.369 | 0.281 | 0.515 | 0.308 | 0.31 | 0.246 | 0.226 | 0.955 | 0.612 | 0.536 | 0.321 | 0.227 |
| SK-MES-1 | 1.05 | 1.1 | 1.04 | 0.971 | 0.289 | 1.22 | 0.877 | 0.788 | 0.38 | 0.216 | 0.879 | 0.596 | 0.441 | 0.34 | 0.2 | 1.05 | 0.755 | 0.651 | 0.351 | 0.258 |
| SW 1573 | 0.689 | 0.775 | 0.888 | 0.753 | 0.805 | 0.818 | 0.967 | 0.682 | 0.582 | 0.721 | 0.476 | 0.562 | 0.44 | 0.401 | 0.457 | 1 | 0.759 | 0.832 | 0.526 | 0.824 |
| UMC-11 | 1.18 | 1.08 | 0.991 | 0.818 | 0.507 | 0.331 | 0.313 | 0.345 | 0.334 | 0.291 | 0.429 | 0.399 | 0.41 | 0.381 | 0.34 | 0.841 | 0.753 | 0.626 | 0.657 | 0.429 |
